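Each compound was tested at five concentrations against cells in 96-well plates for 48 hours. The concentration for 50% growth inhibition is given as GI50.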 Active and inactive are the calls of the source. Cut-off read from the data, not from the text of the source: active = GI50 up to about 1.1 µM and inactive = higher.
How the values were obtained:
Test in all cases: DTP human tumour cell line panel, 48 h
[1] = test system: A498
[2] = test system: Malme-3M
[3] = test system: CCRF-CEM
[4] = test system: Hs-578T
[5] = test system: HOP-92
[6] = test system: EKVX
[7] = test system: OVCAR-5
[8] = test system: DU-145
[9] = test system: NCI/ADR-RES
[10] = test system: SNB-75
[11] = test system: A549
[12] = test system: HL-60
[13] = test system: NCI-H23
[14] = test system: SNB-19
[15] = test system: SF-268
[16] = test system: IGROV-1
[17] = test system: MDA-MB-231
[18] = test system: MDA-N
[19] = test system: K562

Measured: GI50

CCCSc1ccc2[nH]c(/N=C/c3ccco3)cc2c1
inactive: [1] 34.4 µM | [2] 67.9 µM | [3] 27.6 µM | [4] 29.1 µM | [5] 81.8 µM | [6] 3.77 µM | [7] 6.08 µM | [8] 63.5 µM | [9] 27.5 µM | [10] > 100 µM | [11] 77.6 µM | [12] 29.8 µM | [13] 33.8 µM | [14] > 100 µM | [15] 52.6 µM | [16] 36.5 µM

Cc1cc(C)nc(NS(=O)(=O)c2ccc(NNc3c4ccccc4nc4c(C(=O)Nc5ccc(S(=O)(=O)N=C(N)N)cc5)cccc34)cc2)n1
inactive: [2] 76 µM | [3] 34.6 µM | [17] 49.1 µM | [5] 35.6 µM | [18] 49.5 µM | [6] 30.5 µM | [7] 25.1 µM | [8] 65.8 µM | [19] 31.4 µM | [9] > 100 µM | [10] 28.4 µM | [11] > 100 µM | [12] 37.5 µM | [13] 55.8 µM | [14] 61.1 µM | [15] 45 µM | [16] 53 µM

CSC1=C(C)C(/C=N/Nc2ccc([N+](=O)[O-])cc2)=C(C)N(c2ccccc2)S1(=O)=O
inactive: [1] > 100 µM | [2] 94.2 µM | [3] > 100 µM | [17] > 100 µM | [5] > 100 µM | [18] > 100 µM | [6] 33.9 µM | [7] > 100 µM | [8] > 100 µM | [19] 7.71 µM | [9] 6.49 µM | [10] 38.5 µM | [11] 36.3 µM | [12] 1.28 µM | [13] 5.93 µM | [14] > 100 µM | [15] > 100 µM | [16] 28.2 µM

CSc1nc2c(c(=O)n1C)N=C(c1ccc([N+](=O)[O-])cc1)CC(c1ccccc1)N2 (configuration not stated)
inactive: [1] > 100 µM | [2] > 100 µM | [3] 72.4 µM | [17] 36.8 µM | [5] > 100 µM | [6] > 100 µM | [7] > 100 µM | [8] > 100 µM | [19] > 100 µM | [9] > 100 µM | [10] 41.2 µM | [11] > 100 µM | [12] 20.5 µM | [13] 99.8 µM | [14] > 100 µM | [16] > 100 µM

CC(C)(C)OC(=O)N1CCCC1C(=O)NCCNc1ccc(NCCNC(=O)C2CCCN2C(=O)OC(C)(C)C)c2c1C(=O)c1ccccc1C2=O (configuration not stated)
inactive: [2] 15.1 µM | [3] > 100 µM | [17] 13.2 µM | [4] 18.7 µM | [5] 13.8 µM | [6] 27 µM | [7] 16.7 µM | [9] 10.4 µM | [10] 20.4 µM | [11] 15.8 µM | [12] > 100 µM | [13] 15.6 µM | [15] 31.3 µM | [16] 13.9 µM
active: [19] < 0.01 µM | [14] < 0.01 µM

Cc1ccc(C)c(NC(=O)C(=O)C2C(=O)N(c3ccccc3)N=C2N)c1 (configuration not stated)
inactive: [1] > 100 µM | [2] > 100 µM | [3] > 100 µM | [5] > 100 µM | [6] > 100 µM | [7] > 100 µM | [19] 90.2 µM | [10] > 100 µM | [11] > 100 µM | [12] 31.7 µM | [13] > 100 µM | [14] > 100 µM | [15] > 100 µM | [16] > 100 µM
